Source: publication PMC11783601, “Analogue-Sensitive Inhibition of Histone Demethylases Uncovers Member-Specific Function in Ribosomal Protein Synthesis” (Journal of the American Chemical Society, 2025)
Where “and” joins values, the source holds several entries; their conditions need not be identical. Equal values may be shown once.

Biological target: T1, KDM4A F185A (asKDM4A) in HEK293T cells (Homo sapiens, UniProt O75164, F185A)
T1 construct: we generated the F185A mutation in full-length KDM4A carrying all of the functional domains; host or cells: HEK293T
T1 sequence (O75164 1-1064 F185A): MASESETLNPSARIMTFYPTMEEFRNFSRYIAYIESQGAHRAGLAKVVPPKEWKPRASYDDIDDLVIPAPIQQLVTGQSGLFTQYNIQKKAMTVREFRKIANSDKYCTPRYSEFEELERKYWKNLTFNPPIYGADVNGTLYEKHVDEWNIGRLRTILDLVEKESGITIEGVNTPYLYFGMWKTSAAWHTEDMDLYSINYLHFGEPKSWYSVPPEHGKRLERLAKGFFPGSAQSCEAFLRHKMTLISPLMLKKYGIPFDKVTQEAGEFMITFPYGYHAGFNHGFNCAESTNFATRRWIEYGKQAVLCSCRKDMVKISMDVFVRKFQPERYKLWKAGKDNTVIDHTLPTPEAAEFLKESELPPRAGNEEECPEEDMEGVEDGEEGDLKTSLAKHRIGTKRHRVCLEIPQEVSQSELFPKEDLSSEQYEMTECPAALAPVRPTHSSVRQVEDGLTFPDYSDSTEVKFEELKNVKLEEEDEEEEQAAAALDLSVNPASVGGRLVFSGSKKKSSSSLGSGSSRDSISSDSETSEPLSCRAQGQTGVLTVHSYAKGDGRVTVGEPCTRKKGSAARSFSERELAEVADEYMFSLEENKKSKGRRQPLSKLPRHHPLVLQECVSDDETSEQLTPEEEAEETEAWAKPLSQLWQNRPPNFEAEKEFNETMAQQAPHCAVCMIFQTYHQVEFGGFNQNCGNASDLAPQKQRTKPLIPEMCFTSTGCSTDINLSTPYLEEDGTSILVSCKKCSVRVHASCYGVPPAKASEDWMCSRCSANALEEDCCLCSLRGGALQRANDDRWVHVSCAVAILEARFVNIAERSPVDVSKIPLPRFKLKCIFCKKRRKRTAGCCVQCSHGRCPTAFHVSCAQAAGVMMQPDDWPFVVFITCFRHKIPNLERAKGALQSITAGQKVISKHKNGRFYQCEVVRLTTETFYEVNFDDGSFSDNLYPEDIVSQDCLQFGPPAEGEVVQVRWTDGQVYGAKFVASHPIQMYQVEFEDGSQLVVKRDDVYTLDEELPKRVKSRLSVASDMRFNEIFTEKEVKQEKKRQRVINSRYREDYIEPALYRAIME
Assay: Histone extraction, digestion and tandem mass spectrometry (relative abundance of histone modifications)
Type: cell-based
Conditions: peptide form; samples 6A_1, 6A_2
Experimental: HEK293T cells were transiently transfected with asKDM4A and treated with varying concentrations of 6A or 6B. […] To further confirm the activity of the enzyme–inhibitor pair, we performed tandem mass spectrometry of tryptic histones isolated from HEK293T cells expressing asKDM4A in the presence or absence of 100 μM 6A. […]
22. Histone extraction, digestion and tandem mass spectrometry
HEK 293-T cells (ATCC CRL-1573) were plated into 6-well plates (Corning) in DMEM (Corning) supplemented with 10% FBS (Corning) and 1X Antibiotic/Antimycin
(Penicillin/Streptomycin/Fungiozone) (Cytiva HyClone) in an incubator held at 37 °C with 5%
CO2. At 75% confluency, cells were transfected with 2.5 µg KDM4A F185A or Empty Vector with 5µg Thermo Turbofect (FERR0531). After 4 hours, the media was washed and 200 µM of 6A or equivalent volume of DMSO was added and left to incubate at 37 °C for 24 hours. Cells were then washed with 1X PBS (Corning) followed by trypsinization (Gibco TrypLE™ Express Enzyme). Collected cells were centrifuged at 3000xg for 3 minutes, followed by washing with 1X PBS and centrifuged for an additional 3000xg for 3 minutes. Histone proteins were extracted from the pellet as described by25 to ensure good-quality identification and quantification of single histone marks. Briefly, cell pellets were dissolved in 100 µL of cold 0.2 M H2SO4 and incubated for 2 hours rotating in a cold room (4 °C). Aliquots were then centrifuged at 3400xg for 5 minutes […]
at 4 °C and the supernatant was added to a fresh tube. 100% cold TCA was then added to a final volume of 33% volume/volume TCA/supernatant and left to incubate for 1 hour in a cold room (4 °C). Samples were then centrifuged at 3400xg for 5 min at 4 °C and the supernatant was discarded. The precipitate was then washed with cold acetone/0.1% HCl and centrifuged at 3400xg for 5 minutes at 4 °C. The supernatant was discarded, and the precipitate was washed with cold acetone and centrifuged at 3400xg for 5 minutes at 4 °C. The supernatant was discarded, and the pellet was dried using a vacuum centrifuge.
The pellet was dissolved in 50 mM ammonium bicarbonate, pH 8.0, and histones were subjected to derivatization using 5 µL of propionic anhydride and 14 µL of ammonium hydroxide (all Sigma Aldrich) to balance the pH at 8.0. The mixture was incubated for 15 min and the procedure was repeated. Histones were then digested with 1 µg of sequencing grade trypsin (Promega) diluted in 50mM ammonium bicarbonate (1:20, enzyme:sample) overnight at room temperature.
Derivatization reaction was repeated to derivatize peptide N-termini. The samples were dried in a […]
Sample desalting: Prior to mass spectrometry analysis, samples were desalted using a 96-well plate filter (Orochem) packed with 1 mg of Oasis HLB C-18 resin (Waters). Briefly, the samples were resuspended in 100 µl of 0.1% TFA and loaded onto the HLB resin, which was previously equilibrated using 100 µl of the same buffer. After washing with 100 µl of 0.1% TFA, the samples were eluted with a buffer containing 70 µl of 60% acetonitrile and 0.1% TFA and then dried in a […]
LC-MS/MS Acquisition and Analysis: Samples were resuspended in 10 µl of 0.1% TFA and loaded onto a Dionex RSLC […] (Thermo Scientific), coupled online with an Orbitrap Fusion Lumos (Thermo Scientific). Chromatographic separation was performed with a two-column system, consisting of a C-18 trap cartridge (300 µm ID, 5 mm length) and a picofrit analytical column (75 µm ID, 25 cm length) packed in-house with reversed-phase Repro-Sil Pur C18-AQ 3 µm resin. Peptides were separated using a 30 min gradient from 1-30% buffer B (buffer A: 0.1% formic acid, buffer B: 80% acetonitrile + 0.1% formic acid) at a flow rate of 300 nl/min.
The mass spectrometer was set to acquire spectra in a data-independent acquisition (DIA) mode.

CCCCCCCCOC(=O)C(=O)NC(CC(C)C)C(=O)O [6A, L-Leu octyl-ester NOG]
Relative abundance, H3_9_17 K9me1S10ph: 7.8% and 0.0004%
Relative abundance, H3_9_17 K9me1S10phK14ac: 0.0342% and 0.0031%
Relative abundance, H3_9_17 K9me2: 22.1% and 17.2%
Relative abundance, H3_9_17 K9me2K14ac: 19.6% and 31.3%
Relative abundance, H3_9_17 K9me2S10ph: 0.317% and 0.0091%
Relative abundance, H3_9_17 K9me2S10phK14ac: 0.125% and 0.1%
Relative abundance, H3_9_17 K9me3: 10.5% and 10.1%
Relative abundance, H3_9_17 K9me3K14ac: 4.9% and 8.1%
Relative abundance, H3_9_17 K9me3S10ph: 0.178% and 0.2%
Relative abundance, H3_9_17 K9me3S10phK14ac: 0.0363% and 0.177%
Relative abundance, H3_9_17 K14ac: 8.4% and 11.5%
Relative abundance, H3_9_17 S10ph: 0.0768% and 0.0083%
Relative abundance, H3_9_17 S10phK14ac: 0.0443% and 0.0008%
Relative abundance, H3_9_17 unmod: 9.8% and 11.8%
Relative abundance, H3_18_26 K18ac: 0.249% and 0.34%
Relative abundance, H3_18_26 K18acK23ac: 0.647% and 0.316%
Relative abundance, H3_18_26 K18me1: 0.0% and 0.0012%
Relative abundance, H3_18_26 K18me1K23me1: 0.0%
Relative abundance, H3_18_26 K23ac: 50.6% and 44.0%
Relative abundance, H3_18_26 K23me1: 0.0% and 0.0005%
Relative abundance, H3_18_26 unmod: 48.5% and 55.3%
Relative abundance, H3_27_40 K27ac: 0.0296% and 0.0%
Relative abundance, H3_27_40 K27me1: 3.2% and 3.4%
Relative abundance, H3_27_40 K27me1K36me1: 5.3% and 3.7%
Relative abundance, H3_27_40 K27me1K36me2: 8.3% and 9.8%
Relative abundance, H3_27_40 K27me1K36me3: 1.2% and 1.9%
Relative abundance, H3_27_40 K27me1S28ph: 0.0041% and 0.002%
Relative abundance, H3_27_40 K27me2: 15.4% and 12.9%
Relative abundance, H3_27_40 K27me2K36me1: 9.5% and 8.5%
Relative abundance, H3_27_40 K27me2K36me2: 22.1% and 30.2%
Relative abundance, H3_27_40 K27me2S28ph: 0.0281% and 0.0017%
Relative abundance, H3_27_40 K27me3: 11.7% and 6.9%
Relative abundance, H3_27_40 K27me3K36me1: 3.6% and 2.6%
Relative abundance, H3_27_40 K27me3K36me2: 3.5% and 4.6%
Relative abundance, H3_27_40 K27me3S28ph: 0.0216% and 0.0012%
Relative abundance, H3_27_40 K36me1: 1.9% and 1.7%
Relative abundance, H3_27_40 K36me2: 3.2% and 4.8%
Relative abundance, H3_27_40 K36me3: 5.9% and 4.4%
Relative abundance, H3_27_40 S28ph: 0.0007% and 0.1%
Relative abundance, H3_27_40 unmod: 5.0% and 4.6%
Relative abundance, H3_41_49 Y41ph: 0.001% and 0.173%
Relative abundance, H3_41_49 unmod: 100.0% and 99.8%
Relative abundance, H3_54_63 K56ac: 0.0%
Relative abundance, H3_54_63 K56me2: 0.0%
Relative abundance, H3_54_63 K56me3: 0.0%
Relative abundance, H3_73_83 K79ac: 0.0%
Relative abundance, H3_73_83 K79me3: 4.6% and 0.0%
Relative abundance, H4_4_17 K5ac: 1.3% and 2.1%
Relative abundance, H4_4_17 K5acK8ac: 0.3% and 1.0%
Relative abundance, H4_4_17 K5acK8acK12ac: 0.261% and 1.3%
Relative abundance, H4_4_17 K5acK8acK12acK16ac: 0.0284% and 2.6%
Relative abundance, H4_4_17 K5acK8acK16ac: 0.279% and 0.9%
Relative abundance, H4_4_17 K5acK12ac: 0.8% and 3.1%
Relative abundance, H4_4_17 K5acK12acK16ac: 0.471% and 3.1%
Relative abundance, H4_4_17 K5acK16ac: 0.7% and 2.5%
Relative abundance, H4_4_17 K8ac: 1.3% and 1.4%
Relative abundance, H4_4_17 K8acK12ac: 0.211% and 0.6%
Relative abundance, H4_4_17 K8acK12acK16ac: 1.2% and 4.4%
Relative abundance, H4_4_17 K8acK16ac: 1.5% and 3.9%
Relative abundance, H4_4_17 K12ac: 2.8% and 4.2%
Relative abundance, H4_4_17 K12acK16ac: 3.3% and 7.5%
Relative abundance, H4_4_17 K16ac: 24.2% and 24.4%
Relative abundance, H4_4_17 unmod: 61.3% and 37.2%
Relative abundance, H4_20_23 K20ac: 0.3% and 1.3%
Relative abundance, H4_20_23 K20me1: 48.4% and 36.1%
Relative abundance, H4_20_23 K20me3: 3.5% and 3.6%
Relative abundance, H4_20_23 unmod: 37.7% and 34.8%
Relative abundance, H4_24_35 unmod: 100.0%
Relative abundance, H4_40_45 K44ac: 0.0025% and 0.039%
Relative abundance, H4_40_45 unmod: 100.0%
Relative abundance, H4_79_92 unmod: 100.0%
Relative abundance, H33_27_40 K27ac: 0.0069% and 0.0%
Relative abundance, H33_27_40 K27me1: 3.6% and 2.5%
Relative abundance, H33_27_40 K27me1K36me1: 4.8% and 3.5%
Relative abundance, H33_27_40 K27me1K36me2: 11.0% and 11.1%
Relative abundance, H33_27_40 K27me1K36me3: 2.1% and 3.4%
Relative abundance, H33_27_40 K27me1S28ph: 0.0023% and 0.024%
